The target of the assay is T1, rat prestin labelled with GFP (Rattus norvegicus, UniProt Q9EPH0).
T1 sequence (Q9EPH0 1-744): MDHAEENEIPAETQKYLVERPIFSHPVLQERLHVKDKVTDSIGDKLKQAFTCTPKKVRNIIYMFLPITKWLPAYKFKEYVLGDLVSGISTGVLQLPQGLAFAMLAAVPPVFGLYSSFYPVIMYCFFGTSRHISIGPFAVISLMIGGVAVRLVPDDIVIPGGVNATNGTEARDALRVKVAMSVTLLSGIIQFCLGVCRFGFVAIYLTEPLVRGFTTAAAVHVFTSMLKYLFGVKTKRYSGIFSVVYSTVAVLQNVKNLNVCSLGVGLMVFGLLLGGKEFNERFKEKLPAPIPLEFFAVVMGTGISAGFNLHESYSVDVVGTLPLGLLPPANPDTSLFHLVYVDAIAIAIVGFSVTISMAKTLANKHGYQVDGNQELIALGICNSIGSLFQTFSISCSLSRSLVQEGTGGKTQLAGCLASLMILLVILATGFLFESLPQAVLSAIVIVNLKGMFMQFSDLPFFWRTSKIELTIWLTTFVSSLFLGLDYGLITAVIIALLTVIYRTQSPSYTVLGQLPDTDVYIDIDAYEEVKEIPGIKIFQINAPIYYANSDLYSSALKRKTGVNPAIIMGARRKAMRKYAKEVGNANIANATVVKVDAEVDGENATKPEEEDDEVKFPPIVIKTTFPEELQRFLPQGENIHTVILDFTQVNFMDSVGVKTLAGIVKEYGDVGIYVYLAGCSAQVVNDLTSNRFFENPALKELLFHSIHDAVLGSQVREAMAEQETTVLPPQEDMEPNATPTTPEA
The assay can be described thus: whole-cell patch clamp of transfected HEK […] cells, nonlinear capacitance. The format is cell-based. The settings on record: 500 μM extracellular 9-AC; intracellular 135 mM CsCl; pH 7.2; 21.5 °C.

Molecules are shown by their SMILES.

The record followed here is article PMC5111741 (The European Journal of Neuroscience, 2016).

Consider `O=C(O)c1c2ccccc2cc2ccccc12` [9‐anthracenecarboxylic acid], for which the “Q max reduction at 500 μM” value is listed as 59 ± 19%.
